Data: patent US20260193228A1, “TRIAZINONE DERIVATIVES AS NLRP3 INHIBITORS” (Hoffmann-La Roche Inc., priority 2022, published 2026)

How the values were obtained:
Assay type in all cases: cell-based
NLRP3 [1] = biological target: T1, NLRP3 (Homo sapiens, UniProt Q96P20); test: THP-1 cells pyroptosis assay; set-up: Seed THP-1 cells (25,000 cells/well) containing 1.0 μg/ml LPS; host or cells: THP-1 cells; details: 1.0 μg/ml LPS, nigericin 5 μM, resazurin readout
Description: THP-1 cells (ATCC #TIB-202) were grown in RPMI containing L-glutamine (Gibco #11835) supplemented with 1 mM sodium pyruvate (Sigma #S8636) and penicillin (100 units/ml)/streptomycin (0.1 mg/ml) (Sigma #P4333) in 10% Fetal Bovine Serum (FBS) (Sigma #F0804). The cells were routinely passaged and grown to confluency (~10^6 cells/ml). On the day of the experiment, THP-1 cells were harvested and resuspended into RPMI medium (without FBS). The cells were then counted and viability (>90%) checked by Trypan blue (Sigma #T8154). Appropriate dilutions were made to give a concentration of 625,000 cells/ml. To this diluted cell solution was added LPS (Sigma #L4524) to give a […] Final Assay Concentration (FAC). 40 μl of the final preparation was aliquoted into each well of a 96-well plate. The plate thus prepared was used for compound screening.
The following method step-by-step assay was followed for compound screening. • 1. Seed THP-1 cells (25,000 cells/well) containing 1.0 μg/ml LPS in 40 μl of RPMI medium (without FBS) in 96-well, black walled, clear bottom cell culture plates coated with poly-D-lysine (VWR #734-0317) • 2. Add 5 μl compound (8 points half-log dilution, with 10 μM top dose) or vehicle (DMSO 0.1% FAC) to the appropriate wells • 3. Incubate for 3 hours at 37° C., 5% CO2 • 4. Add 5 μl nigericin (Sigma #N7143) (FAC 5 μM) to all wells • 5. Incubate for 1 hr at 37° C., 5% CO2 • 6. At the end of the incubation period, spin plates at 300×g for 3 mins and remove supernatant • 7. Then add 50 μl of resazurin (Sigma #R7017) (FAC 100 μM resazurin in RPMI medium without FBS) and incubate plates for a further 1-2 hours at 37° C. and 5% CO2 • 8. Plates were read in an Envision reader at Ex 560 nm and Em 590 nm • 9. IC50 data is fitted to a non-linear regression equation (log inhibitor vs response-variable slope 4-parameters)

NLRP3 [2] = biological target: T1, NLRP3; test: Human whole blood IL-1β release assay; details: 1 μg/ml LPS, nigericin 10 μM, IL-1β AlphaLisa
Description: For systemic delivery, the ability to inhibit NLRP3 when the compounds are present within the bloodstream is of great importance. For this reason, the NLRP3 inhibitory activity of a number of compounds in human whole blood was investigated in accordance with the following protocol.
Human whole blood in Li-heparin tubes was obtained from healthy donors from a volunteer donor panel. • 1. Plate out 80 μl of whole blood containing 1 μg/ml of LPS in 96-well, clear bottom cell culture plate (Corning #3585) • 2. Add 10 μl compound (8 points half-log dilution with 10 μM top dose) or vehicle (DMSO 0.1% FAC) to the appropriate wells • 3. Incubate for 3 hours at 37° C., 5% CO2 • 4. Add 10 μl nigericin (Sigma #N7143) (10 μM FAC) to all wells • 5. Incubate for 1 hr at 37° C., 5% CO2 • 6. At the end of the incubation period, spin plates at 300×g for 5 mins to pellet cells and remove 20 μl of supernatant and add to 96-well v-bottom plates for IL-1β analysis (note: these plates containing the supernatants can be stored at −80° C. to be analysed at a later date) • 7. IL-1β was measured according to the manufacturer protocol (Perkin Elmer-AlphaLisa IL-1 Kit AL220F-5000) • 8. IC50 data is fitted to a non-linear regression equation (log inhibitor vs response-variable slope 4-parameters)

[3] = biological target: T2, hERG cardiac potassium channel (Homo sapiens, UniProt Q12809); test: hERG screening assay (automated patch clamp, CHO crelox hERG cells); details: CHO crelox hERG cells (CHO cells that express hERG), whole-cell patch clamp, 35-37° C.
T2 construct: host or cells: CHO crelox hERG cell line (Chinese hamster)
Source text: In the drug development process of small molecules, one of the most frequent adverse side effects, leading to the failure of drugs, is the cardiac arrhythmias. Such failure is often related to the capacity of the drug to inhibit the human ether-a-go-go-related gene (hERG) cardiac potassium channel. Having no or low inhibition of the hERG cardiac potassium channel is therefore considered as beneficial.
The CHO crelox hERG cell line (ATCC reference Nr. PTA-6812, female Chinese hamster cells) was generated and validated at Roche. Ready-to-use frozen instant CHO-hERG cells were cryopreserved at Evotec (Germany) and used directly in the experiments.
The extracellular solution contains (in mM): NaCl 150; KCl 4; CaCl2 1; MgCl2 1; HEPES 10; pH 7.2-7.4 with NaOH, osmolarity 290-330 mOsm. […]
The effects of a compound on hERG K+-currents parameters will be evaluated at 2 concentrations in at least 4 cells.
The hERG test is performed using automated patch clamp system SynchroPatch® 384 (Nanion Technologies GmbH, Germany). K+ currents are measured with the patch-voltage-clamp technique in the whole-cell configuration at 35-37° C. […]
The amplitudes of IKhERG were recorded in each concentration of drug and they were compared to the vehicle control values (taken as 100%) to define fractional blocks. […]

T1 sequence (Q96P20 whole entry): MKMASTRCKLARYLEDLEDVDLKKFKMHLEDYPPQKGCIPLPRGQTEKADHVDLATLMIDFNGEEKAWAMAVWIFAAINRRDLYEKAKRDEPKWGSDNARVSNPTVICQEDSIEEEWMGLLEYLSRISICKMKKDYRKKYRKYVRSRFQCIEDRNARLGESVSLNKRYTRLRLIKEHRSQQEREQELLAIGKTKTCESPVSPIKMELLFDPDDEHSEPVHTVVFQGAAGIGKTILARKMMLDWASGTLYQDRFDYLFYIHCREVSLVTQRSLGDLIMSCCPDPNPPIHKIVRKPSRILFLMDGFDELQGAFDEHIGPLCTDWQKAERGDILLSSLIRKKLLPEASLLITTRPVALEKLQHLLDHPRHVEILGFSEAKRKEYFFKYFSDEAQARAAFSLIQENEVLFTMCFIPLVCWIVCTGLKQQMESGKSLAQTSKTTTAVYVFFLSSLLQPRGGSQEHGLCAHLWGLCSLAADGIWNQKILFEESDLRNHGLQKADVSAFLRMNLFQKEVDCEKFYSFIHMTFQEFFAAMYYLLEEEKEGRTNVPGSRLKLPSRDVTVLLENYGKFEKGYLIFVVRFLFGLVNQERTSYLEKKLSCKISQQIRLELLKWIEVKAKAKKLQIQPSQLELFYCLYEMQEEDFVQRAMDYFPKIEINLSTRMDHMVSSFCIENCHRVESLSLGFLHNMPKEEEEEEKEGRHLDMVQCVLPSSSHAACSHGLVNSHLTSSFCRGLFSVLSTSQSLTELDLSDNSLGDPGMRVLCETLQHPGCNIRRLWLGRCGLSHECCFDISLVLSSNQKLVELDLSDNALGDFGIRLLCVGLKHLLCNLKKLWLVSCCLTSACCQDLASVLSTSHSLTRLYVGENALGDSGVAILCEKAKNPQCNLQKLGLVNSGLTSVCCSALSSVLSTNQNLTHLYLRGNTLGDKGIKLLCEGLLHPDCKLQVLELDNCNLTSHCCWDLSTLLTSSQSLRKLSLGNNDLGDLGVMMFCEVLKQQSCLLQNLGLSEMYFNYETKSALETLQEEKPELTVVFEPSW
T2 sequence (Q12809 whole entry): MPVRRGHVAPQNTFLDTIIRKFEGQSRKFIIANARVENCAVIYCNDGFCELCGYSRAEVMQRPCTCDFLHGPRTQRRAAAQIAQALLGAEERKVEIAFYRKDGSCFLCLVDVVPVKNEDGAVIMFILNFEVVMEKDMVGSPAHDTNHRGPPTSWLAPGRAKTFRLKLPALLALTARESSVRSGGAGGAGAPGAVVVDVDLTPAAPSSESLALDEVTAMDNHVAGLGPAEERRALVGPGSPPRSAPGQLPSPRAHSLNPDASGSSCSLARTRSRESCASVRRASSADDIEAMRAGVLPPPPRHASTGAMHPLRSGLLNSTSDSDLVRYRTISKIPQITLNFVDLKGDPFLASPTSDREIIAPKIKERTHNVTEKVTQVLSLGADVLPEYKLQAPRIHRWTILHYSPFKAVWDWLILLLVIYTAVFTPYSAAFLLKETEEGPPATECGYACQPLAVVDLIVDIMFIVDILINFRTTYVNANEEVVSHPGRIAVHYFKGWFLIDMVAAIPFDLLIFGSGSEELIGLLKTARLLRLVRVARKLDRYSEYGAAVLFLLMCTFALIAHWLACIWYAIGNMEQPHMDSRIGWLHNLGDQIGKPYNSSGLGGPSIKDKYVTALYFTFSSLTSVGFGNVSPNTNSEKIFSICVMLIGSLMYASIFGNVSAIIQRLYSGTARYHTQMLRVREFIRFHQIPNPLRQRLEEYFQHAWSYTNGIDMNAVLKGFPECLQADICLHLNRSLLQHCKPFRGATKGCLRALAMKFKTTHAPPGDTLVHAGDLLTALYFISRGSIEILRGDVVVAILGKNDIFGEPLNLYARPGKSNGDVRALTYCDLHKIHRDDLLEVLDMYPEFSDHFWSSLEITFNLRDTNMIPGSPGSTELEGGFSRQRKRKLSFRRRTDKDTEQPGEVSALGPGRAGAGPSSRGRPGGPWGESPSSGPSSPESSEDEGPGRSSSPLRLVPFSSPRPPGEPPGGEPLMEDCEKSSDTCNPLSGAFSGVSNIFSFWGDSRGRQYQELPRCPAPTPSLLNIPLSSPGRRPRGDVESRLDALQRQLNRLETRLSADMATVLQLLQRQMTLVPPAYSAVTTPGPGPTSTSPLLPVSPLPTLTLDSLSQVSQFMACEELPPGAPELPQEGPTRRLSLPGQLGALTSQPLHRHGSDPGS

SMILES | IC50 (NLRP3 [1]) | IC50 (NLRP3 [2]) | IC20 [3]
CCN1CCC[C@@H](Nc2nnc(-c3ccc(C(F)(F)F)cc3O)c(=O)n2C)C1 [Example 1, 3-[[(3R)-1-Ethyl-3-piperidyl]amino]-6-[2-hydroxy-4-(trifluoromethyl)phenyl]-4-methyl-1,2,4-triazin-5-one; Formic Acid] | 616 nM | – | –
CCN1CCC[C@@H](Nc2nnc(-c3c(C)cc(C(F)(F)F)cc3O)c(=O)n2C)C1 [Example 2, 3-[[(3R)-1-ethyl-3-piperidyl]amino]-6-[2-hydroxy-6-methyl-4-(trifluoromethyl)phenyl]-4-methyl-1,2,4-triazin-5-one] | 31.3 nM | 52 nM | > 10000 nM
CCN1CCC[C@@H](Nc2nnc(-c3c(C)cc4c(c3O)CCC4)c(=O)n2C)C1 [Example 3, 3-[[(3R)-1-Ethyl-3-piperidyl]amino]-6-(4-hydroxy-6-methyl-indan-5-yl)-4-methyl-1,2,4-triazin-5-one] | 17 nM | 41 nM | > 10000 nM

Further lines, with some results ahead:

IC50 (NLRP3 [1]) | IC50 (NLRP3 [2]) | SMILES | IC20 [3]
248 nM | – | Cc1cc2c(c(O)c1-c1nnc(N[C@@H]3CCCN(CCO)C3)n(C)c1=O)CCC2 [Example 4, 3-[[(3R)-1-(2-Hydroxyethyl)-3-piperidyl]amino]-6-(4-hydroxy-6-methyl-indan-5-yl)-4-methyl-1,2,4-triazin-5-one] | –
39 nM | 33 nM | CCN1CCC[C@@H](Nc2nnc(-c3c(C)cc4c(c3O)CCO4)c(=O)n2C)C1 [Example 5, 3-[[(3R)-1-Ethyl-3-piperidyl]amino]-6-(4-hydroxy-6-methyl-2,3-dihydrobenzofuran-5-yl)-4-methyl-1,2,4-triazin-5-one] | –
33 nM | 41 nM | CCN1CCC[C@@H](Nc2nnc(-c3c(C)cc(Cl)cc3O)c(=O)n2C)C1 [Example 6, 6-(4-Chloro-2-hydroxy-6-methyl-phenyl)-3-[[(3R)-1-ethyl-3-piperidyl]amino]-4-methyl-1,2,4-triazin-5-one] | –
